Test results from patent US20240287138A1, “CYCLIC PEPTIDES FOR INHIBITING TNF RECEPTOR 1 ACTIVITY” (Merck Sharp & Dohme LLC, priority 2023, published 2024).
Numbered stars: 1 amine (or outer) side, 2 acyl side, 3 side chain; on linkers, the order of the positions; unused ones are H or OH. Bridge positions count the residues as written; N and C are the ends. Square brackets hold non-standard residues; d marks the D form. Peptide text beside a SMILES is read from it. Trp(βS-Me,7-OMe) = COc1cccc2c([C@H](C)[C@H](N)C(=O)O)c[nH]c12; Trp(7-Cl) = N[C@@H](Cc1c[nH]c2c(Cl)cccc12)C(=O)O; X8 = O=C([C@@H]1C[C@@H](O)[C@H](N[*:1])C1)[*:2]; Phe(4-COOH) = N[C@@H](Cc1ccc(C(=O)O)cc1)C(=O)O; Trp(7-aza) = N[C@@H](Cc1c[nH]c2ncccc12)C(=O)O; Phe(4-CH2NH2) = NCc1ccc(C[C@H](N)C(=O)O)cc1; Pip(5R-OH) = O=C(O)[C@@H]1CC[C@@H](O)CN1; X38 = CC(C)(CO)CN(CC(=O)[*:2])[*:1]; Pip(4-aza) = O=C(O)[C@@H]1CNCCN1; 4Pal = N[C@@H](Cc1ccncc1)C(=O)O; NMeE = CN[C@@H](CCC(=O)O)C(=O)O; Pip = O=C(O)[C@@H]1CCCCN1; αMeS = C[C@](N)(CO)C(=O)O; Nle = CCCC[C@H](N)C(=O)O; Nme = COCCNCC(=O)O; Sar = CNCC(=O)O

Assays:
[1] = target: T1, human TNFR2 ECD protein (Homo sapiens, UniProt P20333); assay: SPR off-target binding (selectivity) to human TNFR2 ECD
T1 construct: HRV 3C protease cleavage site (C); 6His (C, cleaved yes); made in house; host or cells: Sf21 insect cells (baculovirus), secreted
T1 sequence (P20333 23-257): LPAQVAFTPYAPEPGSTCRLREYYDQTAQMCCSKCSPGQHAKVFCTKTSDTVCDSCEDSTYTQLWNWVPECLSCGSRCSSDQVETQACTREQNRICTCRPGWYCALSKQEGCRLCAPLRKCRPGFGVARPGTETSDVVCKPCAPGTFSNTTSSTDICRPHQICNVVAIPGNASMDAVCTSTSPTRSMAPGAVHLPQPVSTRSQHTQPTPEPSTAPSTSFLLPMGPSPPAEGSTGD
Method: B. Procedure for Binding Affinity and Selectivity measured by SPR
Affinity and selectivity for hTNFR1 and TNFR2 was determined using SPR. Human TNFR1 or TNFR2 genes (extracellular domain only) were synthesized with a C-terminal Avi-tag, HRV 3C protease cleavage site followed by a 6His-tag for affinity purification. The final gene product was cloned into pBAC™-1 vector (Millipore Sigma) for expression testing in insect cells. Constructs were transfected into Sf21 cells for baculovirus generation followed by protein expression analysis in Sf21 and Tni cell lines. Large scale expression in Sf21 cells was performed using baculovirus infected insect cells (BIICs) infected at a MOI=2.0 grown for 72 h. Target proteins secreted into the media were harvested via centrifugation and concentrated using diafiltration. TNFR was purified by immobilized metal ion affinity chromatography (IMAC) using a Ni-Sepharose HisTrap™ column (Cytiva™). Isolated TNFR had His tag removed using HRV 3C protease followed by additional purification using Ni-NTA chromatography. Biotinylation was performed on Ni-NTA flow-through fractions concentrated to 45 μM and treated with BirA ligase (1:100, μg/μg ratio) in 50 mM Tris pH 7.5, 150 mM NaCl, 50 μM biotin, 10 mM magnesium acetate, 10 mM ATP at 4° C. for 20 h. Final purification of biotin-TNFR and buffer exchange into 20 mM HEPES pH 7.5, 150 mM NaCl was performed using a HiLoad® Superdex® 200 26/60 column (Cytiva™). Highly purified protein was aliquoted and stored at −80° C.
The SPR assay uses a Cytiva™ 8K or 8K+ biosensor instrument to measure the kinetics of peptide analytes binding to captured human TNFR1 extracellular domain (ECD) protein; peptide analytes are also evaluated for any off-target binding to human TNFR2 ECD protein in parallel. Recombinant human TNFR1 ECD and human TNFR2 ECD proteins, biotinylated via engineered C-terminal avi-tags, are immobilized to a regenerable streptavidin biosensor chip surface (Cytiva™ Biotin CAPture kit, Series S; cat. #28920234). Peptide analytes binding to immobilized human TNFR1 ECD protein and their subsequent dissociation are conducted in a buffer of 10 mM HEPES pH 7.4, 150 mM NaCl, 3 mM EDTA, 0.05% P20,2% DMSO under laminar flow conditions and measured in response units (RU), which are directly proportional to the accumulated mass on the surface of the biosensor chip; the biosensor chip surface is regenerated via Cytiva™ proprietary methods between the evaluation of each peptide analyte. […] The SPR assay determines the association and dissociation rate constants, kon and koff, for each peptide analyte and, from these values, calculates the binding affinity, […] reported in Table 2.

[2] = target: T2, TNFα-induced NF-κB signal transduction pathway (TNFR1 signaling) in THP-1 cells (Homo sapiens, UniProt P19438); assay: THP-1 Lucia NF-κB reporter cell assay, inhibition of TNFα-induced NF-κB signaling; format: cell-based; conditions: THP-1 NF-κB Lucia reporter cells, 10 ng/mL TNFα, 16-18 h, secreted luciferase; read-out: THP-1 IC50
T2 sequence (P19438 30-455): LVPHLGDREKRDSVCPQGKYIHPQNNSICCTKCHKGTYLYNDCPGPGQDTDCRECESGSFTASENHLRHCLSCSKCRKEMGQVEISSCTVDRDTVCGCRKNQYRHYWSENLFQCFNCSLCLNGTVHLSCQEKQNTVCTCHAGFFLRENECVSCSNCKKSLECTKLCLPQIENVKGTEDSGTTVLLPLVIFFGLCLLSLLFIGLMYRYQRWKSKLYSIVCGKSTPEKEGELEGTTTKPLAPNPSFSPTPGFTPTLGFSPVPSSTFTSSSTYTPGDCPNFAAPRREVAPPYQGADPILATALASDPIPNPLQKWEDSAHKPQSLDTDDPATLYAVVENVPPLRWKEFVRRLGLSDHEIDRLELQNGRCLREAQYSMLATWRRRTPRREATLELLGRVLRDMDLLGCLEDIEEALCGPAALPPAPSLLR
Summary of the method: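 Inhibition of TNFR1-driven NF-κB activation was measured as luminescence of secreted reporter luciferase following overnight (16-18 h) stimulation with 10 ng/mL TNFα.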

| Compound | Kd [1] [nM] | IC50 [2] [nM] |
| --- | --- | --- |
| CCCC[C@@H]1NC(=O)[C@@H]2C[C@@H](O)[C@@H](C2)NC(=O)[C@H]([C@@H](C)c2c[nH]c3c(OC)cccc23)NC(=O)CN(C)C(=O)[C@H](Cc2ccc(O)cc2)NC(=O)[C@H](Cc2ccc(C(=O)O)cc2)NC(=O)[C@](C)(CO)NC(=O)[C@H](Cc2c[nH]c3c(Cl)cccc23)NC(=O)[C@H](Cc2ccncc2)NC(=O)[C@H](CC(N)=O)NC(=O)[C@H](CCC(=O)O)N(C)C(=O)[C@H](Cc2c[nH]c3ccccc23)NC(=O)[C@@H]2CNCCN2C(=O)[C@H](Cc2ccncc2)NC1=O [SEQ ID NO. 34] (cyclo([4Pal][Trp(7-Cl)][αMeS][Phe(4-COOH)]Y[Sar][Trp(βS-Me,7-OMe)][X8][Nle][4Pal][Pip(4-aza)]W[NMeE]N)) | > 1000 | 0.7 |
| CCCC[C@@H]1NC(=O)CSC[C@@H](C(N)=O)NC(=O)[C@H]([C@@H](C)c2c[nH]c3c(OC)cccc23)NC(=O)CN(C)C(=O)[C@H](Cc2ccc(O)cc2)NC(=O)[C@H](Cc2ccc(C(=O)O)cc2)NC(=O)[C@](C)(CO)NC(=O)[C@H](Cc2c[nH]c3c(Cl)cccc23)NC(=O)[C@H](Cc2ccncc2)NC(=O)[C@H](CC(N)=O)NC(=O)CN(CC(C)(C)CO)C(=O)[C@H](Cc2c[nH]c3ncccc23)NC(=O)[C@@H]2CCCCN2C(=O)[C@H](Cc2ccncc2)NC1=O [SEQ ID NO. 61] ({CH2CO}-[Nle][4Pal][Pip][Trp(7-aza)][X38]N[4Pal][Trp(7-Cl)][αMeS][Phe(4-COOH)]Y[Sar][Trp(βS-Me,7-OMe)]C-NH2; thioether N-14) | > 1000 | 3.6 |
| CCCC[C@@H]1NC(=O)CSC[C@@H](C(N)=O)NC(=O)[C@H]([C@@H](C)c2c[nH]c3c(OC)cccc23)NC(=O)CN(C)C(=O)[C@H](Cc2ccc(O)cc2)NC(=O)[C@H](Cc2ccc(C(=O)O)cc2)NC(=O)[C@](C)(CO)NC(=O)[C@H](Cc2c[nH]c3c(Cl)cccc23)NC(=O)[C@H](Cc2ccncc2)NC(=O)[C@H](CC(N)=O)NC(=O)CN(CCOC)C(=O)[C@H](Cc2c[nH]c3ncccc23)NC(=O)[C@@H]2CCCCN2C(=O)[C@H](Cc2ccncc2)NC1=O [SEQ ID NO. 62] ({CH2CO}-[Nle][4Pal][Pip][Trp(7-aza)][Nme]N[4Pal][Trp(7-Cl)][αMeS][Phe(4-COOH)]Y[Sar][Trp(βS-Me,7-OMe)]C-NH2; thioether N-14) | > 1000 | 4.4 |
| CCCC[C@@H]1NC(=O)CSC[C@@H](C(N)=O)NC(=O)[C@H]([C@@H](C)c2c[nH]c3c(OC)cccc23)NC(=O)CN(C)C(=O)[C@H](Cc2ccc(O)cc2)NC(=O)[C@H](Cc2ccc(C(=O)O)cc2)NC(=O)[C@](C)(CO)NC(=O)[C@H](Cc2c[nH]c3c(Cl)cccc23)NC(=O)[C@H](Cc2ccc(CN)cc2)NC(=O)[C@H](CC(N)=O)NC(=O)[C@H](CCC(=O)O)N(C)C(=O)[C@H](Cc2c[nH]c3ccccc23)NC(=O)[C@@H]2CC[C@@H](O)CN2C(=O)[C@H](Cc2ccncc2)NC1=O [SEQ ID NO. 96] ({CH2CO}-[Nle][4Pal][Pip(5R-OH)]W[NMeE]N[Phe(4-CH2NH2)][Trp(7-Cl)][αMeS][Phe(4-COOH)]Y[Sar][Trp(βS-Me,7-OMe)]C-NH2; thioether N-14) | > 1000 | 1.6 |
